The values below come from US7534809B2, “Phospho-indoles as HIV inhibitors” (priority 2004, dated 2009).

Data set [1] can be described thus: pH dependent aqueous solubility, shake-flask method. The data set is classed as physicochemical. As to conditions: aqueous solution, thermodynamic from solid, saturated concentration 1 mM. How it is done:
The aqueous solubility of each compound was determined by the conventional shake-flask method at a saturated concentration of 1 mM. The flask (vial) was shaken for 3 hrs at ambient temperature, and then centrifuged. The supernatant was analyzed by HPLC with UV detection for solubility determination. In general, a higher aqueous solubility is more desirable for drug candidates.

Data set [2] in a line: Human plasma protein binding, equilibrium dialysis. The data set is classed as in vitro ADME. As to conditions: pooled human plasma, 37° C., about 6 hours, 1 μM drug, read-out: Protein binding (human plasma) % Free. How it is done: The human plasma protein binding was determined using the Equilibrium Dialysis method. Dialysis was conducted with pooled human plasma at 37° C. for approximately 6 hours at a drug concentration of 1 μM. At the end of the dialysis, buffer samples from the buffer-side of the dialysis cell were collected and analyzed by LC/MS/MS for free drug concentration. For NNRTIs, a lower protein binding is more desirable.

Data set [3] addresses T1, CYP3A4 (Homo sapiens, UniProt P08684).
T1 construct: purchased BD Biosciences
The data set can be described thus: CYP450 inhibition, CYP3A4/BFC screening kit. Type of data set: in vitro ADME. The source says: (§1) In vitro CYP450 inhibition screening allows for the prediction of potential drug-drug interactions. […] Potency and rank order of the inhibition can be assessed by determination of the IC50 values for a particular isozyme.
(§2) CYP3A4 inhibition was screened using the CYP3A4/BFC high throughput inhibitor screening kit (BD Biosciences), CYP2D6 inhibition was screened using the CYP2D6/AMMC high throughput inhibitor screening kit (BD Biosciences), and CYP2C9 inhibition was screened using the P450-Glo™ Assay kit (Promega).

For data set [4], the target named is T2, CYP2D6 (Homo sapiens, UniProt P10635).
T2 construct: purchased BD Biosciences
Description: CYP450 inhibition, CYP2D6/AMMC screening kit. The data set is classed as in vitro ADME.
Excerpt: as §1, §2

For data set [5], the target named is T3, CYP2C9 (Homo sapiens, UniProt P11712).
T3 construct: purchased Promega
The data set can be described thus: CYP450 inhibition, CYP2C9 P450-Glo assay kit. The data set is classed as in vitro ADME.
Excerpt: as §1, §2

Data set [6] can be described thus: Metabolic stability in human liver microsomes. Type of data set: in vitro ADME. As to conditions: 10 μM, 1 mg/mL microsomes, 37° C., 2 hrs. An excerpt:
(§3) The metabolic stability assay is to evaluate the stability of test compound in biological matrices. Data are useful in terms of understanding and predicting the elimination mechanisms of the test compound. CYP450-dependent metabolism of drugs can also vary widely from one species to another. Evaluating in vitro metabolism of a drug by liver microsomes from multiple species allows the comparison of metabolism in animal species to that of humans. This can help identify the most relevant animal model for PK and toxicology studies. The metabolic stability of a test compound was evaluated in vitro in liver microsomes of the rat, dog, monkey, and human. 10 μM of the test compound was pre-incubated for 5 min at 37° C. with 1 mg/mL liver microsomes in 0.1M Tris buffer, pH 7.4 containing 5 mM MgCl2 and 0.1 mM EDTA. Following pre-incubation, NADPH (final concentration of 3 mM) was added to start the reaction and samples incubated for 0 and 1 or 2 hours. After terminating the reaction, the supernatant was analyzed by HPLC-UV or LC/MS/MS for the disappearance of the parent and formation of metabolite(s). The %parent remaining was the peak area ratio of the 1 or 2 hr sample to the time 0 sample. In general, less metabolism (higher % parent values) is more desirable.
For orientation: Microsomes from liver hold many membrane-bound enzymes, among them those of drug oxidation.

A short description of data set [7]: Metabolic stability in rat liver microsomes. Type of data set: in vitro ADME. As to conditions: 10 μM, 1 mg/mL microsomes, 37° C., 2 hrs.
Excerpt: as §3

A short description of data set [8]: Metabolic stability in dog liver microsomes. The data set is classed as in vitro ADME. The settings on record: 10 μM, 1 mg/mL microsomes, 37° C., 2 hrs.
Excerpt: as §3

Data set [9] can be described thus: Metabolic stability in monkey liver microsomes. Type of data set: in vitro ADME. The settings on record: 10 μM, 1 mg/mL microsomes, 37° C., 2 hrs.
Excerpt: as §3

A short description of data set [10]: In vitro metabolism in liver microsomes, metabolic pathway. Type of data set: in vitro ADME, rat, dog, monkey, and human. As to conditions: LC/MS/MS metabolite profiling. On the procedure: Phase I biotransformation of a test compound is evaluated in this assay. Samples from the metabolic stability experiment were analyzed by LC/MS/MS for metabolite profiling and identification. Structures of metabolites were elucidated based on multiple MS/MS experiments such as full scan, neutral loss scan, and product ion scan. Metabolic pathways were then postulated based on the structures of major metabolites. For compounds from the phosphinate series, N-oxidation of the terminal pyridine ring is the predominant pathway, followed by the oxidation of the dimethyl-phenyl group, where the methyl group(s) is hydroxylated, further oxidized to an aldehyde, and finally to a carboxylic acid. The elucidation of metabolic pathways is important in terms of understanding the elimination mechanism of a test compound and assisting the design of new molecules with improved DM-PK profiles.

Data set [11] is described as follows: PK and oral bioavailability in the rat. As to conditions: for half-life: PEG400, read-out: T½ (converted). Type of data set: in vivo, Sprague-Dawley rats. On the procedure: (§4) The pharmacokinetics of a test compound was evaluated in Sprague-Dawley rats and Beagle dogs. A typical PK study involved dosing of 2 to 3 animals via a single IV bolus injection at 1 mg/kg and another 3 animals via a single oral gavage at 5 mg/kg. Blood samples were collected at various time points over a 24-hr period. Plasma was separated and analyzed for test compound and its metabolite(s) by LC/MS/MS. PK parameters were calculated from the plasma concentration—time profile using a noncompartmental method. Oral bioavailability (F) was calculated based on dose-normalized AUC values from oral and IV administration. Higher oral bioavailability values are better.

Data set [12] in a line: PK and oral bioavailability in the dog. Type of data set: in vivo, Beagle dogs. On the procedure:
as §4

The test system of data set [13] is mutant forms such as K103N/M184V/NAMS and K103N/Y181C/M184V/NAMS. Description: MDRC4 and CNDO cell-based assays versus other mutant forms. More on the design: species or system HIV. The settings on record: Human immunodeficiency virus 1, read-out: EC50 values.
[14] abbreviates: Sprague-Dawley, plasma, IV, 1.0 mg/kg, PEG400.
Setting [15] is: Sprague-Dawley, plasma, PO, 5.0 mg/kg, PEG400.
The mark [16] stands for this setting: Beagle, plasma, IV, 1.0 mg/kg, PEG400.
The mark [17] stands for this setting: Beagle, plasma, PO, 5.0 mg/kg, 0.5% MC.

≈ marks a conversion by molar mass, not a printed value. Where two headings read alike, the source gives them in different places. Bounds are passed on as bounds.

T3 sequence (P11712 whole entry): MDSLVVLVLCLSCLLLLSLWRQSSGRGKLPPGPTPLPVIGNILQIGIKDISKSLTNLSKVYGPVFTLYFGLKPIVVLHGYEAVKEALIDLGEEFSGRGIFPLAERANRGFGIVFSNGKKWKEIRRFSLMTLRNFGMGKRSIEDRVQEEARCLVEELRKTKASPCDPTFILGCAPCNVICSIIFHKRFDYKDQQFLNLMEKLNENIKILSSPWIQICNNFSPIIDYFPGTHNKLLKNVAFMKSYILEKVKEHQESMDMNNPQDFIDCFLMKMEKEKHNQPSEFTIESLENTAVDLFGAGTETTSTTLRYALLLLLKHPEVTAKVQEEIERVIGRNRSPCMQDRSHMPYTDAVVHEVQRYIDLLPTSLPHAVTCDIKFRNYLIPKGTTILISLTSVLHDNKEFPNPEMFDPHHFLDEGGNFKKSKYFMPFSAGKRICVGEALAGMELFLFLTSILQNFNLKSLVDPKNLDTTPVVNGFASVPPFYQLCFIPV
T1 sequence (P08684 whole entry): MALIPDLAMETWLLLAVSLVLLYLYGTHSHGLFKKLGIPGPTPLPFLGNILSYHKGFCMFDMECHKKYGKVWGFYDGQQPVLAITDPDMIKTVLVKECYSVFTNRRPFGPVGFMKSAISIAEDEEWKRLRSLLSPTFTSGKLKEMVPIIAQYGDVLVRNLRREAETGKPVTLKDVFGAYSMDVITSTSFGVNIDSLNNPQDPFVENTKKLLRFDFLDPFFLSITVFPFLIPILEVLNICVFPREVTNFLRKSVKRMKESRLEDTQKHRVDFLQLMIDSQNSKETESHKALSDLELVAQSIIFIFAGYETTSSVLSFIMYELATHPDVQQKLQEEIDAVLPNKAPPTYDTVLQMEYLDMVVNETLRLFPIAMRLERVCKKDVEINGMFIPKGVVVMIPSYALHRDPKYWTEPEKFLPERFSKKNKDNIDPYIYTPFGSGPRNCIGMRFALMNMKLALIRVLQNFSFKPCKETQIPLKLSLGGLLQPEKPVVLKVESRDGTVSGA
T2 sequence (P10635 whole entry): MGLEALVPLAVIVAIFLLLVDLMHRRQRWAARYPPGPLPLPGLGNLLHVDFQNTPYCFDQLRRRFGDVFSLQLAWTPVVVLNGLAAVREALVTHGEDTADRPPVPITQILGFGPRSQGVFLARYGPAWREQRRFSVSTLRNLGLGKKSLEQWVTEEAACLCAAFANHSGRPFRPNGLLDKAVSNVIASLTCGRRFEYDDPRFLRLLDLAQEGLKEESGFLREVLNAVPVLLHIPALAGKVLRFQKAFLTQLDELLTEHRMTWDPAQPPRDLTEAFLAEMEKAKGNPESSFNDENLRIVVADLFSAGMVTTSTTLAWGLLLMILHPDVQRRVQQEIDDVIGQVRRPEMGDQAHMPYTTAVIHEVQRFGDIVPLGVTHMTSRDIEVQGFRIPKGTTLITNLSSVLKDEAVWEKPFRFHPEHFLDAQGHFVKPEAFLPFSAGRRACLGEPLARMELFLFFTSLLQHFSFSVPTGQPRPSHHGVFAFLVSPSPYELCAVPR

Usually solubility stands for the concentration that dissolves in the medium under given conditions. What is called IC50 is the concentration that inhibits the measured activity by half. The AUC(0-inf) is total exposure, with the tail of the curve extrapolated. One may read the AUC(0-t) as the area under the concentration-time curve up to a stated or last time point. What is called Cmax is the maximum level reached in the sampled fluid or tissue. A word on the Tmax: it is the time at which the peak concentration occurs. As to `COP(=O)(c1cc(C)cc(C)c1)c1c(C(=O)NCc2cc[n+]([O-])cc2)[nH]c2ccc(Cl)cc12` (stereo not drawn) [Compound D], the solubility at 3 h in [1] (pH 1, simulated gastric fluid, pH1, ambient temperature, read-out: Aqueous solubility pH1) was 52 µM (≈ 25.2 µg/mL); in data set [1] (pH 3, aqueous buffer, pH3, ambient temperature, read-out: Aqueous solubility pH3) it was 74.2 µM (≈ 35.9 µg/mL); in data set [1] (pH 7, aqueous buffer, pH7, ambient temperature, read-out: Aqueous solubility pH7) it was 50.6 µM (≈ 24.5 µg/mL); in data set [1] (pH 9, aqueous buffer, pH9, ambient temperature, read-out: Aqueous solubility pH9), 66.8 µM (≈ 32.3 µg/mL). The fraction unbound at 6 h, 1 μM in data set [2] was 0.016. Also, the IC50 in data set [3] is 1070 nM; in [4] it was more than 10000 nM; in data set [5] it was more than 10000 nM. In data set [6], the “Metabolic stability in liver microsomes % Parent after 2 hrs, Human” value is 76%. Besides, the “Metabolic stability in liver microsomes % Parent after 2 hrs, Rat” value in [7] was 1%. For the same compound, in data set [8], the “Metabolic stability in liver microsomes % Parent after 2 hrs, Dog” value came out at 82%. Besides, the “Metabolic stability in liver microsomes % Parent after 2 hrs, Monkey” value in data set [9] turned out to be 24%. Further, the “Metabolic pathway (in vitro)” value in [10] was “Hydroxylation to CH3OH— to CHO— to COOH—”. For the same compound, the AUCinf/Dose in data set [11] (IV, 1.0 mg/kg, PEG400) was 188.3; in [11] (PO, 5.0 mg/kg, PEG400), 30.2; in data set [12] (IV, 1.0 mg/kg, PEG400), 1220.5; in data set [12] (PO, 5.0 mg/kg, 0.5% MC) it was 149.3. Further, the CI in data set [11] (IV, 1.0 mg/kg, PEG400) is 90.297 mL/min/kg; in data set [12] (IV, 1.0 mg/kg, PEG400) it was 13.7 mL/min/kg. For the same compound, the F in data set [11] (PO, 5.0 mg/kg, PEG400, oral bioavailability) is listed as 16.0%; in data set [12] (PO, 5.0 mg/kg, 0.5% MC, oral bioavailability), 12.4%. Moreover, the AUC(0-inf) in data set [11] (setting [14]) turned out to be 188 ng·h/mL; in data set [11] (setting [15]), 151 ng·h/mL; in [12] (setting [16]) it was 1220 ng·h/mL; in [12] (setting [17]), 747 ng·h/mL. Besides, the AUC(0-t) in data set [11] (setting [14]) turned out to be 174 ng·h/mL; in data set [11] (setting [15]), 132 ng·h/mL; in data set [12] (setting [16]), 1010 ng·h/mL; in data set [12] (setting [17]), 696 ng·h/mL. Also, the Cmax in data set [11] (setting [14]) is 166 ng/mL; in data set [11] (setting [15]), 45 ng/mL; in data set [12] (setting [16]), 430 ng/mL; in data set [12] (setting [17]), 116 ng/mL. For the same compound, the half-life is 0.9 h in data set [11] (Sprague-Dawley, plasma, IV, 1.0 mg/kg); 2.2 h in [11] (Sprague-Dawley, plasma, PO, 5.0 mg/kg); 3.2 h in data set [12] (Beagle, plasma, IV, 1.0 mg/kg, PEG400, read-out: T½ (converted)); 2.6 h in data set [12] (Beagle, plasma, PO, 5.0 mg/kg, 0.5% MC, read-out: T½ (converted)). For the same compound, the Vd in data set [11] (Sprague-Dawley, plasma, IV, 1.0 mg/kg, PEG400, read-out: Vss) came out at 6.37 L/kg; in [12] (Beagle, plasma, IV, 1.0 mg/kg, PEG400, read-out: Vss), 3.72 L/kg. The time to peak (Tmax) in [11] (setting [15]) was 0.5 h; in [12] (setting [17]) it was 2.7 h.

Broadly, the EC50 is the concentration that produces a half-maximal response. As for `CCOC(=O)c1c(P(=O)(OCC)c2ccccc2)c2cc(Cl)ccc2n1S(=O)(=O)c1ccccc1` (stereo not drawn) [Example 3, Ethyl 5-chloro-3-[ethoxy(phenyl)phosphoryl]-1-(phenylsulfonyl)-1H-indole-2-carboxylate], the EC50 in [13] lay in the range of 1.3 to 447 nM.
